Data taken from ChEMBL document CHEMBL3390848, “Affinity selection and sequence-activity relationships of HIV-1 membrane fusion inhibitors directed at the drug-resistant variants” (Medchemcomm, 2010).
Residues, ends and D or L forms follow the SMILES beside them.

Tests used:
[1] = system: Human immunodeficiency virus 1; test: Antiviral activity against HIV1 NL4-3 harboring gp41 D36G mutant infected in human HeLa cells expressing CD4-LTR-beta-gal assessed as inhibition of viral replication after 48 hrs by MAGI assay; type: functional, organism-based
[2] = system: Human immunodeficiency virus 1; test: Thermal stability of HIV1 envelope glycoprotein gp41 His-tagged N-terminal heptad repeat N36-drug complex assessed as thermal unfolding transition state by measuring molar ellipticity at 4 to 90 degC by circular dichroic spectra analysis
[3] = system: Human immunodeficiency virus 1; test: Binding affinity to HIV1 His-tagged N-terminal heptad repeat of envelope glycoprotein gp41 assessed as recovery of N36-drug complex after 2 hrs by LC-MS analysis; parameters: concentration or dose not given beside the values

| Structure (SMILES) | EC50 [1] [nM] | Tm [2] [°C] | Activity [3] [%] |
| --- | --- | --- | --- |
| CC[C@H](C)[C@H](NC(=O)[C@H](CC(C)C)NC(=O)[C@H](CCC(=O)O)NC(=O)[C@H](CCC(=O)O)NC(=O)[C@@H](NC(=O)[C@H](CCCCN)NC(=O)[C@H](CCCCN)NC(=O)[C@@H](NC(=O)[C@H](Cc1ccc(O)cc1)NC(=O)[C@H](CCC(=O)O)NC(=O)[C@H](CCC(=O)O)NC(=O)[C@@H](NC(=O)[C@H](CCCCN)NC(=O)[C@H](CCCCN)NC(=O)[C@H](CC(=O)O)NC(=O)[C@H](Cc1c[nH]c2ccccc12)NC(=O)[C@H](CCC(=O)O)NC(=O)[C@H](CCC(=O)O)NC(=O)[C@H](Cc1c[nH]c2ccccc12)NC(C)=O)[C@@H](C)CC)[C@@H](C)O)[C@@H](C)CC)C(=O)N[C@@H](CCCCN)C(=O)N[C@@H](CCCCN)C(=O)N[C@@H](CO)C(=O)N[C@@H](CCC(=O)O)C(=O)N[C@@H](CCC(=O)O)C(=O)N[C@@H](Cc1cnc[nH]1)C(=O)N[C@@H](CCC(N)=O)C(=O)N[C@@H](CCCCN)C(=O)N[C@@H](CCCCN)C(=O)N[C@@H](CC(N)=O)C(=O)N[C@@H](CCC(=O)O)C(=O)N[C@@H](CCC(=O)O)C(=O)N[C@@H](CCC(=O)O)C(=O)N[C@@H](CC(C)C)C(=O)N[C@@H](CCCCN)C(=O)N[C@@H](CCCCN)C(N)=O (Ac-WEEWDKKIEEYTKKIEELIKKSEEHQKKNEEELKK-NH2) | 2 | 72.6 | 4.3 |
| CC[C@H](C)[C@H](NC(=O)[C@H](CCC(=O)O)NC(=O)[C@H](CCC(=O)O)NC(=O)[C@H](CO)NC(=O)[C@H](CCCCN)NC(=O)[C@H](CCCCN)NC(=O)[C@@H](NC(=O)[C@H](CC(C)C)NC(=O)[C@H](CCC(=O)O)NC(=O)[C@H](CCC(=O)O)NC(=O)[C@@H](NC(=O)[C@H](CCCCN)NC(=O)[C@H](CCCCN)NC(=O)[C@@H](NC(=O)[C@H](Cc1ccc(O)cc1)NC(=O)[C@H](CCC(=O)O)NC(=O)[C@H](CCC(=O)O)NC(=O)[C@@H](NC(=O)[C@H](CCCCN)NC(=O)[C@H](CCCCN)NC(=O)[C@H](CC(=O)O)NC(=O)[C@H](Cc1c[nH]c2ccccc12)NC(=O)[C@H](CCC(=O)O)NC(=O)[C@H](CCC(=O)O)NC(=O)[C@H](Cc1c[nH]c2ccccc12)NC(C)=O)[C@@H](C)CC)[C@@H](C)O)[C@@H](C)CC)[C@@H](C)CC)C(=O)N[C@@H](CCC(N)=O)C(=O)N[C@@H](CCCCN)C(=O)N[C@@H](CCCCN)C(=O)N[C@@H](CC(N)=O)C(=O)N[C@@H](CCC(=O)O)C(=O)N[C@@H](CCC(=O)O)C(=O)N[C@@H](CCC(=O)O)C(=O)N[C@@H](CC(C)C)C(=O)N[C@@H](CCCCN)C(=O)N[C@@H](CCCCN)C(N)=O (Ac-WEEWDKKIEEYTKKIEELIKKSEEIQKKNEEELKK-NH2) | 2.9 | 79.7 | 8.2 |
| CC[C@H](C)[C@H](NC(=O)[C@H](CC(C)C)NC(=O)[C@H](CCC(=O)O)NC(=O)[C@H](CCC(=O)O)NC(=O)[C@@H](NC(=O)[C@H](CCCCN)NC(=O)[C@H](CCCCN)NC(=O)[C@@H](NC(=O)[C@H](Cc1ccc(O)cc1)NC(=O)[C@H](CCC(=O)O)NC(=O)[C@H](CCC(=O)O)NC(=O)[C@@H](NC(=O)[C@H](CCCCN)NC(=O)[C@H](CCCCN)NC(=O)[C@H](CC(=O)O)NC(=O)[C@H](Cc1c[nH]c2ccccc12)NC(=O)[C@H](CCC(=O)O)NC(=O)[C@H](CCC(=O)O)NC(=O)[C@H](Cc1c[nH]c2ccccc12)NC(C)=O)[C@@H](C)CC)[C@@H](C)O)[C@@H](C)CC)C(=O)N[C@@H](CCCCN)C(=O)N[C@@H](CCCCN)C(=O)N[C@@H](CO)C(=O)N[C@@H](CCC(=O)O)C(=O)N[C@@H](CCC(=O)O)C(=O)N[C@@H](CCCCN)C(=O)N[C@@H](CCC(N)=O)C(=O)N[C@@H](CCCCN)C(=O)N[C@@H](CCCCN)C(=O)N[C@@H](CC(N)=O)C(=O)N[C@@H](CCC(=O)O)C(=O)N[C@@H](CCC(=O)O)C(=O)N[C@@H](CCC(=O)O)C(=O)N[C@@H](CC(C)C)C(=O)N[C@@H](CCCCN)C(=O)N[C@@H](CCCCN)C(N)=O (Ac-WEEWDKKIEEYTKKIEELIKKSEEKQKKNEEELKK-NH2) | 2.7 | 69.2 | 4.8 |
| CC[C@H](C)[C@H](NC(=O)[C@H](CC(C)C)NC(=O)[C@H](CCC(=O)O)NC(=O)[C@H](CCC(=O)O)NC(=O)[C@@H](NC(=O)[C@H](CCCCN)NC(=O)[C@H](CCCCN)NC(=O)[C@@H](NC(=O)[C@H](Cc1ccc(O)cc1)NC(=O)[C@H](CCC(=O)O)NC(=O)[C@H](CCC(=O)O)NC(=O)[C@@H](NC(=O)[C@H](CCCCN)NC(=O)[C@H](CCCCN)NC(=O)[C@H](CC(=O)O)NC(=O)[C@H](Cc1c[nH]c2ccccc12)NC(=O)[C@H](CCC(=O)O)NC(=O)[C@H](CCC(=O)O)NC(=O)[C@H](Cc1c[nH]c2ccccc12)NC(C)=O)[C@@H](C)CC)[C@@H](C)O)[C@@H](C)CC)C(=O)N[C@@H](CCCCN)C(=O)N[C@@H](CCCCN)C(=O)N[C@@H](CO)C(=O)N[C@@H](CCC(=O)O)C(=O)N[C@@H](CCC(=O)O)C(=O)N[C@@H](CC(C)C)C(=O)N[C@@H](CCC(N)=O)C(=O)N[C@@H](CCCCN)C(=O)N[C@@H](CCCCN)C(=O)N[C@@H](CC(N)=O)C(=O)N[C@@H](CCC(=O)O)C(=O)N[C@@H](CCC(=O)O)C(=O)N[C@@H](CCC(=O)O)C(=O)N[C@@H](CC(C)C)C(=O)N[C@@H](CCCCN)C(=O)N[C@@H](CCCCN)C(N)=O (Ac-WEEWDKKIEEYTKKIEELIKKSEELQKKNEEELKK-NH2) | 2.7 | 83.8 | 8.2 |
| CC[C@H](C)[C@H](NC(=O)[C@H](CC(C)C)NC(=O)[C@H](CCC(=O)O)NC(=O)[C@H](CCC(=O)O)NC(=O)[C@@H](NC(=O)[C@H](CCCCN)NC(=O)[C@H](CCCCN)NC(=O)[C@@H](NC(=O)[C@H](Cc1ccc(O)cc1)NC(=O)[C@H](CCC(=O)O)NC(=O)[C@H](CCC(=O)O)NC(=O)[C@@H](NC(=O)[C@H](CCCCN)NC(=O)[C@H](CCCCN)NC(=O)[C@H](CC(=O)O)NC(=O)[C@H](Cc1c[nH]c2ccccc12)NC(=O)[C@H](CCC(=O)O)NC(=O)[C@H](CCC(=O)O)NC(=O)[C@H](Cc1c[nH]c2ccccc12)NC(C)=O)[C@@H](C)CC)[C@@H](C)O)[C@@H](C)CC)C(=O)N[C@@H](CCCCN)C(=O)N[C@@H](CCCCN)C(=O)N[C@@H](CO)C(=O)N[C@@H](CCC(=O)O)C(=O)N[C@@H](CCC(=O)O)C(=O)N[C@@H](CCSC)C(=O)N[C@@H](CCC(N)=O)C(=O)N[C@@H](CCCCN)C(=O)N[C@@H](CCCCN)C(=O)N[C@@H](CC(N)=O)C(=O)N[C@@H](CCC(=O)O)C(=O)N[C@@H](CCC(=O)O)C(=O)N[C@@H](CCC(=O)O)C(=O)N[C@@H](CC(C)C)C(=O)N[C@@H](CCCCN)C(=O)N[C@@H](CCCCN)C(N)=O (Ac-WEEWDKKIEEYTKKIEELIKKSEEMQKKNEEELKK-NH2) | 2 | 80.2 | 6 |
